In article PMC5218480 (PLoS ONE, 2017):

System: MV-4-11 cells
Test: Gene expression microarray analysis (Affymetrix PrimeView) and GSEA
Format: cell-based, human
Design: RFU PODN (11730768_x_at) / Fold change /veh PODN (11730768_x_at) / RFU LINC00158 (11744669_a_at) / Fold change /veh LINC00158 (11744669_a_at) / RFU DUSP10 (11751237_a_at) / Fold change /veh DUSP10 (11751237_a_at) / RFU ID3 (11757404_x_at) / Fold change /veh ID3 (11757404_x_at) / RFU PLEKHG5 (11737974_s_at) / Fold change /veh PLEKHG5 (11737974_s_at) / RFU LRRC4B (11730491_at) / Fold change /veh LRRC4B (11730491_at) / RFU GIMAP4 (11747438_a_at) / Fold change /veh GIMAP4 (11747438_a_at) / RFU KRT8 (11758183_x_at) / Fold change /veh KRT8 (11758183_x_at) / RFU CNN1 (11734310_a_at) / Fold change /veh CNN1 (11734310_a_at) / RFU VPS37D (11726825_at) / Fold change /veh VPS37D (11726825_at) / RFU C10orf10 (11716522_x_at) / Fold change /veh C10orf10 (11716522_x_at) / RFU KIR2DL2 /// KIR2DL4 /// KIR2DL5A /// KIR2DL5B /// KIR2DS1 /// KIR2DS2 /// KIR2DS3 /// KIR2DS4 /// KIR3DL3 /// KIR3DL3 /// KIR3DS1 (11738374_at) / Fold change /veh KIR2DL2 /// KIR2DL4 /// KIR2DL5A /// KIR2DL5B /// KIR2DS1 /// KIR2DS2 /// KIR2DS3 /// KIR2DS4 /// KIR3DL3 /// KIR3DL3 /// KIR3DS1 (11738374_at) / RFU C1QL1 (11718748_at) / Fold change /veh C1QL1 (11718748_at) / RFU TMPRSS4 (11747572_a_at) / Fold change /veh TMPRSS4 (11747572_a_at) / RFU HAMP (11756126_x_at) / Fold change /veh HAMP (11756126_x_at) / RFU RNFT2 (11725882_a_at) / Fold change /veh RNFT2 (11725882_a_at) / RFU NR4A2 (11747474_a_at) / Fold change /veh NR4A2 (11747474_a_at) / RFU ABCC12 (11746883_a_at) / Fold change /veh ABCC12 (11746883_a_at) / RFU TMEM136 (11760407_x_at) / Fold change /veh TMEM136 (11760407_x_at) / RFU CLDN22 /// WWC2 (11732394_at) / Fold change /veh CLDN22 /// WWC2 (11732394_at) / RFU HLA-DPB1 (11760878_x_at) / Fold change /veh HLA-DPB1 (11760878_x_at) / RFU SPINT1 (11716480_a_at) / Fold change /veh SPINT1 (11716480_a_at) / RFU GAP43 (11754022_s_at) / Fold change /veh GAP43 (11754022_s_at) / RFU A4GNT (11735810_at) / Fold change /veh A4GNT (11735810_at) / RFU PRB3 (11715151_x_at) / Fold change /veh PRB3 (11715151_x_at) / RFU TUBB4B (11761932_at) / Fold change /veh TUBB4B (11761932_at) / RFU CAPN14 (11732068_a_at) / Fold change /veh CAPN14 (11732068_a_at) / RFU TMCC2 (11721928_a_at) / Fold change /veh TMCC2 (11721928_a_at) / RFU IRGQ (11745062_a_at) / Fold change /veh IRGQ (11745062_a_at) / RFU FAM174B (11720279_a_at) / Fold change /veh FAM174B (11720279_a_at) / RFU TMPRSS4 (11748680_a_at) / Fold change /veh TMPRSS4 (11748680_a_at) / RFU FAM212B (11763350_a_at) / Fold change /veh FAM212B (11763350_a_at) / RFU PLEKHG5 (11743358_a_at) / Fold change /veh PLEKHG5 (11743358_a_at) / RFU ZSCAN30 (11745921_a_at) / Fold change /veh ZSCAN30 (11745921_a_at) / RFU CMKLR1 (11741424_a_at) / Fold change /veh CMKLR1 (11741424_a_at) / RFU LOC101060620 /// MAPK8IP1 (11723275_at) / Fold change /veh LOC101060620 /// MAPK8IP1 (11723275_at) / RFU SPTSSB (11747773_x_at) / Fold change /veh SPTSSB (11747773_x_at) / RFU PRSS12 (11739890_at) / Fold change /veh PRSS12 (11739890_at) / RFU BIN1 (11741810_x_at) / Fold change /veh BIN1 (11741810_x_at) / RFU WNT11 (11732464_a_at) / Fold change /veh WNT11 (11732464_a_at) / RFU C10orf10 (11716521_a_at) / Fold change /veh C10orf10 (11716521_a_at) / RFU C5orf56 (11738089_at) / Fold change /veh C5orf56 (11738089_at) / RFU CYB561 (11721691_x_at) / Fold change /veh CYB561 (11721691_x_at) / RFU ANKRD19P (11752326_a_at) / Fold change /veh ANKRD19P (11752326_a_at) / RFU OR2T12 /// OR2T33 /// OR2T8 (11738714_s_at) / Fold change /veh OR2T12 /// OR2T33 /// OR2T8 (11738714_s_at) / RFU VCAN (11748164_a_at) / Fold change /veh VCAN (11748164_a_at) / RFU JSRP1 (11732532_at) / Fold change /veh JSRP1 (11732532_at) / RFU KRTAP10-11 (11738290_x_at) / Fold change /veh KRTAP10-11 (11738290_x_at) / RFU MYO3A (11730013_a_at) / Fold change /veh MYO3A (11730013_a_at) / RFU EBF3 (11725865_a_at) / Fold change /veh EBF3 (11725865_a_at) / RFU CAMK2N1 (11719241_x_at) / Fold change /veh CAMK2N1 (11719241_x_at) / RFU C5orf56 (11738088_a_at) / Fold change /veh C5orf56 (11738088_a_at) / RFU OLFML3 (11715873_a_at) / Fold change /veh OLFML3 (11715873_a_at) / RFU LOC100653217 /// NTM (11731650_a_at) / Fold change /veh LOC100653217 /// NTM (11731650_a_at) / RFU MAPK11 (11762145_a_at) / Fold change /veh MAPK11 (11762145_a_at) / RFU FIZ1 (11724087_x_at) / Fold change /veh FIZ1 (11724087_x_at) / RFU OASL (11726364_x_at) / Fold change /veh OASL (11726364_x_at) / RFU SOX15 (11748057_x_at) / Fold change /veh SOX15 (11748057_x_at) / RFU CD79A (11719716_a_at) / Fold change /veh CD79A (11719716_a_at) / RFU HIST1H1D (11736915_at) / Fold change /veh HIST1H1D (11736915_at) / RFU CASKIN2 (11723855_a_at) / Fold change /veh CASKIN2 (11723855_a_at) / RFU LOC730098 (11760151_x_at) / Fold change /veh LOC730098 (11760151_x_at) / RFU OR4N2 (11742367_at) / Fold change /veh OR4N2 (11742367_at) / RFU PRRT2 (11749266_a_at) / Fold change /veh PRRT2 (11749266_a_at) / RFU SNX32 (11753110_a_at) / Fold change /veh SNX32 (11753110_a_at) / RFU CDHR5 (11726645_a_at) / Fold change /veh CDHR5 (11726645_a_at) / RFU RCAN1 (11760418_a_at) / Fold change /veh RCAN1 (11760418_a_at) / RFU FAM167A (11723789_a_at) / Fold change /veh FAM167A (11723789_a_at) / RFU FAM26E (11764081_at) / Fold change /veh FAM26E (11764081_at) / RFU ISYNA1 (11749810_s_at) / Fold change /veh ISYNA1 (11749810_s_at) / RFU ACY1 (11761880_at) / Fold change /veh ACY1 (11761880_at) / RFU 11764098_at / Fold change /veh 11764098_at / RFU SAMD14 (11745864_x_at) / Fold change /veh SAMD14 (11745864_x_at) / RFU NPB (11741838_a_at) / Fold change /veh NPB (11741838_a_at) / RFU TMPRSS6 (11731388_a_at) / Fold change /veh TMPRSS6 (11731388_a_at) / RFU KRTAP10-2 (11738614_at) / Fold change /veh KRTAP10-2 (11738614_at) / RFU ARHGAP8 /// PRR5-ARHGAP8 (11727945_x_at) / Fold change /veh ARHGAP8 /// PRR5-ARHGAP8 (11727945_x_at) / RFU KRTAP5-7 /// NADSYN1 (11734609_at) / Fold change /veh KRTAP5-7 /// NADSYN1 (11734609_at) / RFU RASL12 (11751679_a_at) / Fold change /veh RASL12 (11751679_a_at) / RFU CDKN2B (11736163_a_at) / Fold change /veh CDKN2B (11736163_a_at) / RFU PRF1 (11729649_at) / Fold change /veh PRF1 (11729649_at) / RFU, ZNF638 /// ZNF638-IT1 / Fold change vs veh, ZNF638 /// ZNF638-IT1 / RFU, PANK3 / Fold change vs veh, PANK3 / RFU, SH3YL1 / Fold change vs veh, SH3YL1 / RFU, ZEB2 / Fold change vs veh, ZEB2 / RFU, NRIP1 / Fold change vs veh, NRIP1 / RFU, PTTG1IP / Fold change vs veh, PTTG1IP / RFU, CAPN2 / Fold change vs veh, CAPN2 / RFU, MED14 / Fold change vs veh, MED14 / RFU, SNORA58 / Fold change vs veh, SNORA58 / RFU, C1orf63 / Fold change vs veh, C1orf63 / RFU, LRRFIP1 / Fold change vs veh, LRRFIP1 / RFU, NDUFAF7 / Fold change vs veh, NDUFAF7 / RFU, SLC12A2 / Fold change vs veh, SLC12A2 / RFU, IBTK / Fold change vs veh, IBTK / RFU, ESF1 / Fold change vs veh, ESF1 / Fold change vs veh, TMEM50B / RFU, TAOK1 / Fold change vs veh, TAOK1 / RFU, ACBD3 / Fold change vs veh, ACBD3 / RFU, TMA16 / Fold change vs veh, TMA16 / RFU, RWDD3 / Fold change vs veh, RWDD3 / RFU, BCAT1 / Fold change vs veh, BCAT1 / RFU, EDEM3 / Fold change vs veh, EDEM3 / RFU, TMEM33 / Fold change vs veh, TMEM33 / RFU, WDR75 / Fold change vs veh, WDR75 / RFU, AHCTF1 / Fold change vs veh, AHCTF1 / RFU, TFRC / Fold change vs veh, TFRC / RFU, ZDHHC17 / Fold change vs veh, ZDHHC17 / RFU, NOM1 / Fold change vs veh, NOM1 / RFU, ARL8B / Fold change vs veh, ARL8B / RFU, ZBTB11 / Fold change vs veh, ZBTB11 / RFU, TAMM41 / Fold change vs veh, TAMM41 / RFU, KIAA1704 /// LOC100996395 / Fold change vs veh, KIAA1704 /// LOC100996395 / RFU, ING1 / Fold change vs veh, ING1 / RFU, TRMT61B / Fold change vs veh, TRMT61B / RFU, FUBP3 / Fold change vs veh, FUBP3 / RFU, TP53 / Fold change vs veh, TP53 / RFU, TNKS2 / Fold change vs veh, TNKS2 / RFU, ZFP14 / Fold change vs veh, ZFP14 / RFU, ACTR2 / Fold change vs veh, ACTR2 / RFU, PPP3R1 / Fold change vs veh, PPP3R1 / RFU, PIK3R1 / Fold change vs veh, PIK3R1 / RFU, HNRNPA1 / Fold change vs veh, HNRNPA1 / RFU, RNF170 / Fold change vs veh, RNF170 / RFU, ZNF28 / Fold change vs veh, ZNF28 / RFU, RNGTT / Fold change vs veh, RNGTT / RFU, OGT / Fold change vs veh, OGT / RFU, BRD1 / Fold change vs veh, BRD1 / RFU, MARS / Fold change vs veh, MARS / RFU, ZNF655 / Fold change vs veh, ZNF655 / RFU, FAHD1 / Fold change vs veh, FAHD1 / RFU, BDP1 / Fold change vs veh, BDP1 / RFU, LRRCC1 / Fold change vs veh, LRRCC1 / RFU, ARID1A / Fold change vs veh, ARID1A / RFU, ZNF146 / Fold change vs veh, ZNF146 / RFU, ZNF330 / Fold change vs veh, ZNF330 / RFU, GPN3 / Fold change vs veh, GPN3 / RFU, C9orf123 / Fold change vs veh, C9orf123 / RFU, N4BP2L2 / Fold change vs veh, N4BP2L2 / RFU, ARFIP1 / Fold change vs veh, ARFIP1 / RFU, FAM179B / Fold change vs veh, FAM179B / RFU, BCL10 / Fold change vs veh, BCL10 / RFU, UHRF1BP1L / Fold change vs veh, UHRF1BP1L / RFU, BET1 / Fold change vs veh, BET1 / RFU, CNOT2 / Fold change vs veh, CNOT2 / RFU, ZNF268 / Fold change vs veh, ZNF268 / Fold change vs veh, ZNF507 / RFU, DGCR2 / Fold change vs veh, DGCR2 / RFU, WDSUB1 / Fold change vs veh, WDSUB1 / Fold change vs veh, HSP90B1 /// MIR3652 / RFU, ADSS / Fold change vs veh, ADSS / RFU, GK / Fold change vs veh, GK / RFU, ZNF148 / Fold change vs veh, ZNF148 / RFU, TAF9 / Fold change vs veh, TAF9 / RFU, SLC1A5 / Fold change vs veh, SLC1A5 / RFU, SLMO2 / Fold change vs veh, SLMO2 / RFU, ABCC4 / Fold change vs veh, ABCC4 / RFU, LOC101060439 /// RAP1B / Fold change vs veh, LOC101060439 /// RAP1B / RFU, RFX7 / Fold change vs veh, RFX7 / RFU, GTPBP10 / Fold change vs veh, GTPBP10 / RFU, CNEP1R1 / Fold change vs veh, CNEP1R1 / RFU, BIVM-ERCC5 /// ERCC5 / Fold change vs veh, BIVM-ERCC5 /// ERCC5 / RFU, ILF3 / Fold change vs veh, ILF3 / RFU 11762660_at / Fold change /veh 11762660_at / RFU VCAN (11757783_s_at) / Fold change /veh VCAN (11757783_s_at) / RFU DDX43 (11728927_at) / Fold change /veh DDX43 (11728927_at) / RFU KRT8 (11758188_x_at) / Fold change /veh KRT8 (11758188_x_at) / RFU NKD1 (11759106_at) / Fold change /veh NKD1 (11759106_at) / RFU SRD5A1 (11742802_a_at) / Fold change /veh SRD5A1 (11742802_a_at) / RFU TPSAB1 /// TPSB2 (11721975_s_at) / Fold change /veh TPSAB1 /// TPSB2 (11721975_s_at) / RFU GSTM3 (11746129_a_at) / Fold change /veh GSTM3 (11746129_a_at) / RFU IL23R (11737362_x_at) / Fold change /veh IL23R (11737362_x_at) / RFU TMEM51 (11727254_a_at) / Fold change /veh TMEM51 (11727254_a_at) / RFU PIWIL2 (11732686_x_at) / Fold change /veh PIWIL2 (11732686_x_at) / RFU ORM1 (11744905_x_at) / Fold change /veh ORM1 (11744905_x_at) / RFU CCDC152 (11743942_at) / Fold change /veh CCDC152 (11743942_at) / RFU ECM1 (11717891_a_at) / Fold change /veh ECM1 (11717891_a_at) / RFU IL23R (11748794_a_at) / Fold change /veh IL23R (11748794_a_at) / RFU TNFAIP8L3 (11732012_x_at) / Fold change /veh TNFAIP8L3 (11732012_x_at) / RFU MBOAT4 (11741988_at) / Fold change /veh MBOAT4 (11741988_at) / RFU 11764193_at / Fold change /veh 11764193_at / RFU TMEM53 (11763286_at) / Fold change /veh TMEM53 (11763286_at) / RFU MAGEB2 (11727129_at) / Fold change /veh MAGEB2 (11727129_at) / RFU TMEM200A (11744735_a_at) / Fold change /veh TMEM200A (11744735_a_at) / RFU CCDC152 (11751479_a_at) / Fold change /veh CCDC152 (11751479_a_at) / RFU FAM211A (11726209_a_at) / Fold change /veh FAM211A (11726209_a_at) / RFU RGS16 (11746705_a_at) / Fold change /veh RGS16 (11746705_a_at) / RFU VCAN (11755009_s_at) / Fold change /veh VCAN (11755009_s_at) / RFU RHOB (11743442_s_at) / Fold change /veh RHOB (11743442_s_at) / RFU RGS16 (11720943_a_at) / Fold change /veh RGS16 (11720943_a_at) / RFU RGS16 (11720944_at) / Fold change /veh RGS16 (11720944_at) / RFU, VPS4B / Fold change vs veh, VPS4B / RFU, CREB1 / Fold change vs veh, CREB1 / RFU, DNAJC13 / Fold change vs veh, DNAJC13 / RFU, GNAQ / Fold change vs veh, GNAQ / RFU, CDK5R1 / Fold change vs veh, CDK5R1 / RFU, ZRANB3 / Fold change vs veh, ZRANB3 / RFU, CUL4A / Fold change vs veh, CUL4A / RFU, CCNY / Fold change vs veh, CCNY / RFU, UFL1 / Fold change vs veh, UFL1 / RFU, COG3 / Fold change vs veh, COG3 / RFU, DIAPH2 / Fold change vs veh, DIAPH2 / RFU, SKA2 / Fold change vs veh, SKA2 / RFU, AFF3 / Fold change vs veh, AFF3 / RFU, LMF1 / Fold change vs veh, LMF1 / RFU, IPO11 / Fold change vs veh, IPO11 / RFU, DFFB / Fold change vs veh, DFFB / RFU, FOXP1 / Fold change vs veh, FOXP1 / RFU, CARD8 / Fold change vs veh, CARD8 / RFU, STRN3 / Fold change vs veh, STRN3 / RFU, ADK / Fold change vs veh, ADK / RFU, RASSF2 / Fold change vs veh, RASSF2 / RFU, WIPF1 / Fold change vs veh, WIPF1 / RFU, LARP1B / Fold change vs veh, LARP1B / RFU, RASA1 / Fold change vs veh, RASA1 / RFU, RB1 / Fold change vs veh, RB1 / RFU, PPFIA1 / Fold change vs veh, PPFIA1 / RFU, MAT2A / Fold change vs veh, MAT2A / RFU, CCT5 / Fold change vs veh, CCT5 / RFU, WDR92 / Fold change vs veh, WDR92 / RFU, CUX1 / Fold change vs veh, CUX1 / RFU, TTC7A / Fold change vs veh, TTC7A / RFU, TMEM135 / Fold change vs veh, TMEM135 / RFU, DEPTOR / Fold change vs veh, DEPTOR / RFU, CPM / Fold change vs veh, CPM / RFU, DNAJB6 / Fold change vs veh, DNAJB6 / RFU, CACNA2D3 / Fold change vs veh, CACNA2D3 / RFU, DTX4 / Fold change vs veh, DTX4 / RFU, TFCP2 / Fold change vs veh, TFCP2 / RFU, GMCL1 /// GMCL1P1 / Fold change vs veh, GMCL1 /// GMCL1P1 / RFU, AEBP2 / Fold change vs veh, AEBP2 / RFU, SNHG1 /// SNORD22 /// SNORD25 /// SNORD26 /// SNORD27 /// SNORD28 /// SNORD29 /// SNORD31 / Fold change vs veh, SNHG1 /// SNORD22 /// SNORD25 /// SNORD26 /// SNORD27 /// SNORD28 /// SNORD29 /// SNORD31 / Fold change (Aza/veh), C12orf56 (ProbeSet 11735607_a_at) / Fold change (ACY-1035/veh), C12orf56 (ProbeSet 11735607_a_at) / Fold change (Aza/veh), FGFR1OP (ProbeSet 11751329_s_at) / Fold change (ACY-1035/veh), FGFR1OP (ProbeSet 11751329_s_at) / Fold change (Aza/veh), VPS36 (ProbeSet 11739960_a_at) / Fold change (ACY-1035/veh), VPS36 (ProbeSet 11739960_a_at) / RFU SYPL1 (11715823_x_at) / Fold change /veh SYPL1 (11715823_x_at) / RFU IGFBP7 (11715501_s_at) / Fold change /veh IGFBP7 (11715501_s_at) / RFU REEP3 (11722064_at) / Fold change /veh REEP3 (11722064_at) / RFU IGLL1 (11728026_x_at) / Fold change /veh IGLL1 (11728026_x_at): dose or concentration left out as unconfirmed
Settings: ProbeSet 11727958_a_at; LIST B

For `Nc1ccc(-c2cccs2)cc1NC(=O)c1ccc2c(c1)cc(C1CC1)n2CCN1CCOCC1` [ACY-1035], the “Fold change vs veh, ING1” value was 1.02.
